pEC50, pKi: −log10 of the molar value. Structures can show the parent of a compound that is named as a salt.
How the values were obtained:
[1] = biological target: T1, human 5-HT1A receptors (Homo sapiens, UniProt P08908); experiment: [3H] 8-OH-DPAT displacement, affinity for the 5-HT1A receptor; type: binding; conditions: CHO cells stably transfected with human 5-HT1A receptors
T1 construct: expressed in transfected cells; host or cells: CHO cells, stably transfected
T1 sequence (P08908 1-422): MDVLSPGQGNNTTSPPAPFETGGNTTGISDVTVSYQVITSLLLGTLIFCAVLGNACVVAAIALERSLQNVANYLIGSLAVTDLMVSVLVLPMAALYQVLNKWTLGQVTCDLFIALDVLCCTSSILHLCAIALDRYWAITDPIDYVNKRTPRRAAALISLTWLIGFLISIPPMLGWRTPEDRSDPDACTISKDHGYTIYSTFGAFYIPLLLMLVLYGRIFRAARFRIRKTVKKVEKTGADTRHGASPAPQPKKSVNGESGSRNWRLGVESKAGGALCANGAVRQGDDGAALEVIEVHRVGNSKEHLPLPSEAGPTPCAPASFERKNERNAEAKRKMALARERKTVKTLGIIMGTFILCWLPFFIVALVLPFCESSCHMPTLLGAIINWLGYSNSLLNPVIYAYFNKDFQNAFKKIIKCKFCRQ
Excerpt: High affinity for the serotonin 5-HT1A receptor was established by testing the claimed compound's ability to displace [^3H] 8-OH-DPAT (dipropylaminotetralin) from the 5-HT1A serotonin receptor following a modification of the procedure of Hall et al. (J. Neurochem., 1985, 44: 1685) which utilizes CHO cells stably transfected with human 5-HT1A receptors.

[2] = biological target: T2, cloned human 5-HT1A receptors (Homo sapiens, UniProt P08908); experiment: 35S-GTPγS binding assay, agonist activity at 5-HT1A receptors; type: biochemical; conditions: membranes containing cloned human 5-HT1A receptors; for pEC50: read-out: 5-HT1A Function EC50; for Emax / 5-HT1A Function Emax (maximum stimulatory effect): value in parentheses; for Emax: read-out: 5-HT1A Function Emax (maximum stimulatory effect); for 5-HT1A Function Emax (maximum stimulatory effect): in % (unit assumed)
T2 construct: expressed in transfected cells
T2 sequence (P08908 1-422): T1 sequence (P08908 1-422)
Excerpt: The agonist activity at 5-HT1A receptors was established by using a ^35S-GTPγS binding assay similar to that used by Lazareno and Birdsall (Br. J. Pharmacol., 1993, 109:1120). The binding assay determines the test compound's ability to affect the binding of ^35S-GTPγS to membranes containing cloned human 5-HT1A receptors. Agonists produce an increase in binding whereas antagonists produce no increase but rather reverse the effects of the standard agonist 8-OH-DPAT. The test compound's maximum stimulatory effect is represented as the Emax, while its potency is defined by the EC50.

[3] = biological target: T3, 5-HT Transporter (Rattus norvegicus, UniProt P31652); experiment: 3H-paroxetine displacement, affinity for the serotonin transporter; type: binding; conditions: male rat cortical membranes
T3 construct: ability to displace ^3H-paroxetine from male rat cortical membranes; from tissue; host or cells: male rat cortex (membranes)
T3 sequence (P31652 whole entry): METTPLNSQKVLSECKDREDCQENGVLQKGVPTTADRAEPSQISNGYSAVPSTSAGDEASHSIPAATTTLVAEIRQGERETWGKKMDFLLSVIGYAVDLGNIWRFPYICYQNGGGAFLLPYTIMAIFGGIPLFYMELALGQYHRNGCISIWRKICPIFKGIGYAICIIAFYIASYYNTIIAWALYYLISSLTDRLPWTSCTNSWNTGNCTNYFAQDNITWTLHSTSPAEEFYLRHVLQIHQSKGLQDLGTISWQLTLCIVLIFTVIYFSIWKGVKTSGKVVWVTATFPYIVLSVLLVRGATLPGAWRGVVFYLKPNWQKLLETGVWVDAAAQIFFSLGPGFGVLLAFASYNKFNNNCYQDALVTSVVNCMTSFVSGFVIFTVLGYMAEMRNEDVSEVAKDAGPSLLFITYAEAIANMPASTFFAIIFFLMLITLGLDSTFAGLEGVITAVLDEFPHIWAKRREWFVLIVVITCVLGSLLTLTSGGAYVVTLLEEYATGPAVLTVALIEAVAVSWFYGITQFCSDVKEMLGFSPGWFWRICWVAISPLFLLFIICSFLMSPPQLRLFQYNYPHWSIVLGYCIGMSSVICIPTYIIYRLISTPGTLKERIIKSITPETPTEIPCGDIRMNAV

Row | melting point | pKi [1] | pEC50 [2] | Emax [2] [%] | pKi [3] | 5-HT1A Function Emax (maximum stimulatory effect) [2] | SMILES
1 | > 180 °C |  |  |  |  |  | Fc1ccc2[nH]cc(CCCNC3COc4ccc5ncccc5c4C3)c2c1 (stereo not shown) (as salt: hydrochloride) [Compound 1, N-[3-(5-fluoro-1H-indol-3-yl)propyl]-2,3-dihydro-1H-pyrano[3,2-f]quinolin-2-amine]
2 | > 148 °C |  |  |  |  |  | CCCN(CCCc1c[nH]c2ccc(F)cc12)C1COc2ccc3ncccc3c2C1 (stereo not shown) (as salt: hydrochloride) [Compound 2, N-[3-(5-fluoro-1H-indol-3-yl)propyl]-N-propyl-2,3-dihydro-1H-pyrano[3,2-f]quinolin-2-amine]
3 | 67 °C |  |  |  |  |  | CCCN(CCc1c[nH]c2ccc(F)cc12)C1COc2ccc3ncccc3c2C1 (stereo not shown) (as salt: hydrochloride) [Compound 6, N-[2-(5-fluoro-1H-indol-3-yl)ethyl]-N-propyl-2,3-dihydro-1H-pyrano[3,2-f]quinolin-2-amine]
4 | 300 °C (dec.) |  |  |  |  |  | Fc1ccc2[nH]cc(CCCNC3COc4c(ccc5ncccc45)C3)c2c1 (stereo not shown) (as salt: hydrochloride) [Compound 7, N-[3-(5-fluoro-1H-indol-3-yl)propyl]-3,4-dihydro-2H-pyrano[2,3-f]quinolin-3-amine]
5 | 134 °C (dec.) |  |  |  |  |  | CCCN(CCCc1c[nH]c2ccc(F)cc12)C1COc2c(ccc3ncccc23)C1 (stereo not shown) (as salt: hydrochloride) [Compound 8, N-[3-(5-fluoro-1H-indol-3-yl)propyl]-N-propyl-3,4-dihydro-2H-pyrano[2,3-f]quinolin-3-amine]
6 | 173 °C (dec.) |  |  |  |  |  | Fc1ccc2[nH]cc(CCCCNC3COc4c(ccc5ncccc45)C3)c2c1 (stereo not shown) (as salt: hydrochloride) [Compound 9, N-[4-(5-fluoro-1H-indol-3-yl)butyl]-3,4-dihydro-2H-pyrano[2,3-f]quinolin-3-amine]
7 | 330 °C (dec.) |  |  |  |  |  | Fc1ccc2[nH]cc(CCCNC3COc4ccc5ncccc5c4C3)c2c1 (single isomer, unassigned; (+)) (as salt: hydrochloride) [Compound 1a, (+)-N-[3-(5-fluoro-1H-indol-3-yl)propyl]-2,3-dihydro-1H-pyrano[3,2-f]quinolin-2-amine]
8 | 106 °C (dec.) |  |  |  |  |  | CCCN(CCCc1c[nH]c2ccc(F)cc12)C1COc2ccc3ncccc3c2C1 (single isomer, unassigned; (+)) (as salt: hydrochloride) [Compound 4, (+)-N-[3-(5-fluoro-1H-indol-3-yl)propyl]-N-propyl-2,3-dihydro-1H-pyrano[3,2-f]quinolin-2-amine]
9 |  | 7.62 | 6.14 | 100 |  |  | Fc1ccc2[nH]cc(CCCNC3COc4ccc5ncccc5c4C3)c2c1 (single isomer, unassigned; (+)) [Compound 1a, (+)-N-[3-(5-fluoro-1H-indol-3-yl)propyl]-2,3-dihydro-1H-pyrano[3,2-f]quinolin-2-amine]
10 |  | 6.62 | 6.52 |  | 7.72 | 99.92 | CCCN(CCCc1c[nH]c2ccc(F)cc12)C1COc2ccc3ncccc3c2C1 (single isomer, unassigned; (+)) [Compound 4, (+)-N-[3-(5-fluoro-1H-indol-3-yl)propyl]-N-propyl-2,3-dihydro-1H-pyrano[3,2-f]quinolin-2-amine]
11 |  |  | 6.49 |  | 8.55 | 74.80 | Fc1ccc2[nH]cc(CCCNC3COc4c(ccc5ncccc45)C3)c2c1 (single isomer, unassigned; (+)) [Compound 7a, (+)-N-[3-(5-fluoro-1H-indol-3-yl)propyl]-3,4,-dihydro-2H-pyrano[2,3-f]quinolin-3-amine]
12 | 83.5 °C (dec.) |  |  |  |  |  | CCCN(CCCc1c[nH]c2ccc(F)cc12)C1COc2ccc3ncccc3c2C1 (single isomer, unassigned; (-)) (as salt: hydrochloride) [Compound 3, (−)-N-[3-(5-fluoro-1H-indol-3-yl)propyl]-N-propyl-2,3-dihydro-1H-pyran[3,2-f]quinolin-2-amine]
13 | 250 °C (dec.) |  |  |  |  |  | Fc1ccc2[nH]cc(CCCNC3COc4c(ccc5ncccc45)C3)c2c1 (single isomer, unassigned; (-)) (as salt: hydrochloride) [Compound 7b, (−)-N-[3-(5-fluoro-1H-indol-3-yl)propyl]-3,4-dihydro-2H-pyrano[2,3-f]quinolin-3-amine]
14 |  | 6.50 | 6.92 |  |  | 85.87 | Fc1ccc2[nH]cc(CCCNC3COc4ccc5ncccc5c4C3)c2c1 (single isomer, unassigned; (-)) [Compound 1b, (−)-N-[3-(5-fluoro-1H-indol-3-yl)propyl]-2,3-dihydro-1H-pyrano[3,2-f]quinolin-2-amine]
15 |  | 6.68 | 6.20 |  | 8.10 | 54.72 | CCCN(CCCc1c[nH]c2ccc(F)cc12)C1COc2ccc3ncccc3c2C1 (single isomer, unassigned; (-)) [Compound 3, (−)-N-[3-(5-fluoro-1H-indol-3-yl)propyl]-N-propyl-2,3-dihydro-1H-pyran[3,2-f]quinolin-2-amine]
16 |  | 7.79 | 6.77 |  | 8.38 | 100 | Fc1ccc2[nH]cc(CCCNC3COc4c(ccc5ncccc45)C3)c2c1 (single isomer, unassigned; (-)) [Compound 7b, (−)-N-[3-(5-fluoro-1H-indol-3-yl)propyl]-3,4-dihydro-2H-pyrano[2,3-f]quinolin-3-amine]
17 |  | 7.20 | 6.74 | 75.8 |  |  | Fc1ccc2[nH]cc(CCCNC3COc4ccc5ncccc5c4C3)c2c1 (stereo not shown) [Compound 1, N-[3-(5-fluoro-1H-indol-3-yl)propyl]-2,3-dihydro-1H-pyrano[3,2-f]quinolin-2-amine]
18 |  | 7.04 | 5.65 | 100 | 8.19 |  | CCCN(CCCc1c[nH]c2ccc(F)cc12)C1COc2ccc3ncccc3c2C1 (stereo not shown) [Compound 2, N-[3-(5-fluoro-1H-indol-3-yl)propyl]-N-propyl-2,3-dihydro-1H-pyrano[3,2-f]quinolin-2-amine]
19 |  | 6.32 | 6.72 | 41.3 | 7.40 |  | CCCN(CCc1c[nH]c2ccc(F)cc12)C1COc2ccc3ncccc3c2C1 (stereo not shown) [Compound 6, N-[2-(5-fluoro-1H-indol-3-yl)ethyl]-N-propyl-2,3-dihydro-1H-pyrano[3,2-f]quinolin-2-amine]
20 |  | 7.87 | 5.92 | 100 | 8.55 |  | Fc1ccc2[nH]cc(CCCNC3COc4c(ccc5ncccc45)C3)c2c1 (stereo not shown) [Compound 7, N-[3-(5-fluoro-1H-indol-3-yl)propyl]-3,4-dihydro-2H-pyrano[2,3-f]quinolin-3-amine]
21 |  |  | 5.77 | 68.3 | 7.82 |  | CCCN(CCCc1c[nH]c2ccc(F)cc12)C1COc2c(ccc3ncccc23)C1 (stereo not shown) [Compound 8, N-[3-(5-fluoro-1H-indol-3-yl)propyl]-N-propyl-3,4-dihydro-2H-pyrano[2,3-f]quinolin-3-amine]
22 |  |  | 5.23 | 100 | 8.93 |  | Fc1ccc2[nH]cc(CCCCNC3COc4c(ccc5ncccc45)C3)c2c1 (stereo not shown) [Compound 9, N-[4-(5-fluoro-1H-indol-3-yl)butyl]-3,4-dihydro-2H-pyrano[2,3-f]quinolin-3-amine]

Row | SMILES | melting point | pKi [1] | pEC50 [2] | Emax [2] [%] | pKi [3] | 5-HT1A Function Emax (maximum stimulatory effect) [2]
23 | Fc1ccc2[nH]cc(CCNC3COc4ccc5ncccc5c4C3)c2c1 (stereo not shown) (as salt: hydrochloride) [Compound 5] | 91 °C (dec.) |  |  |  |  | 
24 | CCCN(CCCCc1c[nH]c2ccc(F)cc12)C1COc2c(ccc3ncccc23)C1 (stereo not shown) (as salt: hydrochloride) [Compound 10, N-[4-(5-fluoro-1H-indol-3-yl)butyl]-N-propyl-3,4-dihydro-2H-pyrano[2,3-f]quinolin-3-amine] | 164 °C (dec.) |  |  |  |  | 
25 | Fc1ccc2[nH]cc(CCNC3COc4ccc5ncccc5c4C3)c2c1 (stereo not shown) [Compound 5] |  |  | 5.30 | 30 | 7.62 | 
26 | CCCN(CCCCc1c[nH]c2ccc(F)cc12)C1COc2c(ccc3ncccc23)C1 (stereo not shown) [Compound 10, N-[4-(5-fluoro-1H-indol-3-yl)butyl]-N-propyl-3,4-dihydro-2H-pyrano[2,3-f]quinolin-3-amine] |  |  |  |  | 7.92 | 

— patent US7227023B2, “Quinoline 3-amino chroman derivatives” (Wyeth, priority 2003, dated 2007)
